Measured values: patent US11453847B2, “Laundry sheet” (priority 2018, dated 2022)

How the values were obtained:
Water flea = settings: in vivo
Procedure: (§1) (4) An ecotoxicity test was performed on various alkyl polyglucosides.

Algal = settings: in vivo
Procedure: as §1

Row | Substance | Water flea test EC50 (49 h) (Water flea) [µg/mL] | Algal test EC50 (72 h) (Algal) [µg/mL]
1 | alkyl ethoxylate [AEO] | 1.9 | 1.2
2 | fatty acid methyl ester ethoxylate [FMEE] | 79.2 | >100
